In PMC8007111, “Novel Potent Muscarinic Receptor Antagonists: Investigation on the Nature of Lipophilic Substituents in the 5- and/or 6-Positions of the 1,4-Dioxane Nucleus” (Journal of Medicinal Chemistry, 2020):

What was measured:
[1] = molecular target: T1, hM1 mAChR (Homo sapiens, UniProt P11229); assay: [3H]NMS inhibition radioligand binding, hM1 in CHO-K1 cell membranes; settings: [3H]NMS, CHO-K1 cell membranes, mean ± S.E.M.
T1 construct: expressed in transfected cells; host or cells: CHO-K1 (membrane preparation)
T1 sequence (P11229 1-460): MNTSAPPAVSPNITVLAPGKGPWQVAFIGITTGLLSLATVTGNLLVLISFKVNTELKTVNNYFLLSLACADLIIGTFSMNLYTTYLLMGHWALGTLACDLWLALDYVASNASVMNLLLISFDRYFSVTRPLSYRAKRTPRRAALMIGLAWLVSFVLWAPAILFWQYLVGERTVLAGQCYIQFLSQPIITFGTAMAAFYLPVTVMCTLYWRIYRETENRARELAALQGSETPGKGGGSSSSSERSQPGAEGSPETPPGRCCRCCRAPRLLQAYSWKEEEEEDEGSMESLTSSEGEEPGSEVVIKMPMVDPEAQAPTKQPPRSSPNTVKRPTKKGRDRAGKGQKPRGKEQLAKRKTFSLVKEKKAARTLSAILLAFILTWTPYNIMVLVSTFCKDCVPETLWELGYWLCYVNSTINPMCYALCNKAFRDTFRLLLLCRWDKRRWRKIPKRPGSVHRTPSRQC
Description: (§1) CHO-K1 cells stably transfected with the human muscarinic receptor subtypes (hM1–5) were grown in Dulbecco’s modified Eagle’s medium (DMEM) with nutrient mixture F12 (DMEM/F12, 50/50), containing 10% fetal bovine serum, penicillin (100 U/mL), streptomycin (100 U/mL), L-glutamine (4 mM), and geneticin (G-418, 50 μg/mL) at 37 °C in a 5% CO2 humidified incubator. […] Serum (0.7 mL) was added to inactivate the trypsin, and the cells were spun down by centrifuging at 300g for 5 min. The cells were then resuspended in ice-cold 25 mM sodium phosphate buffer containing 5 mM MgCl2, pH 7.4 (binding buffer) and homogenized using a cell disrupter (Ultra-Turrax, setting 3, 30 s). The homogenate was sedimented by centrifugation (17,000g, 15 min). The supernatant was discarded, and the resulting membrane pellets were resuspended with Ultra-Turrax in the same buffer to give a final protein concentration of 1–2 mg/mL. The protein content was determined by the method of Bradford (1976) with bovine serum albumin (Sigma) as a standard and stored at −80 °C.
(§2) Inhibition radioligand binding assays were conducted as previously described[48],[49] with 0.2 nM [^3H]NMS in binding buffer in a final volume of 250 μL. Nonspecific binding was defined in the presence of 10 μM atropine. Briefly, membrane fractions (about 25–70 μg/mL of protein) were incubated with radioligand and unlabeled test compounds for 2 h at r.t. Bound and free radioactivity were separated by filtering the assay mixture through UniFilter GF/B plates using a FilterMate Cell Harvester (PerkinElmer Life and Analytical Science). The filter bound radioactivity was counted by a TopCount NXT Microplate Scintillation Counter (PerkinElmer Life and Analytical Science). Data (cpm) were normalized to percentage-specific binding and analyzed using a four-parameter logistic equation in GraphPad Prism 5.02; IC50 values were determined, and Ki values were calculated.[59]

[2] = molecular target: T2, hM2 mAChR (Homo sapiens, UniProt P08172); assay: [3H]NMS inhibition radioligand binding, hM2 in CHO-K1 cell membranes; settings: [3H]NMS, CHO-K1 cell membranes, mean ± S.E.M.
T2 construct: expressed in transfected cells; host or cells: CHO-K1 (membrane preparation)
T2 sequence (P08172 1-466): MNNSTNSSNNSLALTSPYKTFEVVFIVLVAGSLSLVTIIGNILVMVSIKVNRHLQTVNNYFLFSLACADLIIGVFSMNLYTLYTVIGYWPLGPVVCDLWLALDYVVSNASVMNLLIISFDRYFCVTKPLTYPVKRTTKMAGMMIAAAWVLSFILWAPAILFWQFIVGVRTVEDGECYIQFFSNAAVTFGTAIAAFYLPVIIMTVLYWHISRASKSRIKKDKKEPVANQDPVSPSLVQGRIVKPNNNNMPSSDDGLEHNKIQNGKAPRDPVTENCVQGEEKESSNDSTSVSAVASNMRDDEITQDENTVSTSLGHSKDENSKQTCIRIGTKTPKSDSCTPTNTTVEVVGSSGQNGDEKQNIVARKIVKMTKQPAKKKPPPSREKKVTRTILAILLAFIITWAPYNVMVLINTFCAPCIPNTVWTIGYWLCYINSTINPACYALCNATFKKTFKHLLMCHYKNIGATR
Description: as §1, §2

[3] = molecular target: T3, hM3 mAChR (Homo sapiens, UniProt P20309); assay: [3H]NMS inhibition radioligand binding, hM3 in CHO-K1 cell membranes
T3 construct: expressed in transfected cells; host or cells: CHO-K1 (membrane preparation)
T3 sequence (P20309 whole entry): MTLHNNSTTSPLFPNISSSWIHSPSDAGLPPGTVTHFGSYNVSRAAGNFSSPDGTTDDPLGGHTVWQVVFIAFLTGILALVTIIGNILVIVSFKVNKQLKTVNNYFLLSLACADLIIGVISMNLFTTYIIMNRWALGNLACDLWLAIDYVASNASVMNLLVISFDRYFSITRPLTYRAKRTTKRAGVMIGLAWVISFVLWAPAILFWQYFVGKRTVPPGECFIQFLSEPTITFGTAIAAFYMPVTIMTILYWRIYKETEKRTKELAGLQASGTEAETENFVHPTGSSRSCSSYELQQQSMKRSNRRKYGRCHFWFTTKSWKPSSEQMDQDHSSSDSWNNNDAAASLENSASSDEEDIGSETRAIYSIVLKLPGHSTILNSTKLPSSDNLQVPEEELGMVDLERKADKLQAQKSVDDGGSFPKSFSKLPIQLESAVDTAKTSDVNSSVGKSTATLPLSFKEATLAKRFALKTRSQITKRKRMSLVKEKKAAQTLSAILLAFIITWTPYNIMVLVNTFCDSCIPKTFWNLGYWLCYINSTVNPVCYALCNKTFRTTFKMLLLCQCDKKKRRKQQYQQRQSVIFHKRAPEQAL
Description: as §1, §2

[4] = molecular target: T4, hM4 mAChR (Homo sapiens, UniProt P08173); assay: [3H]NMS inhibition radioligand binding, hM4 in CHO-K1 cell membranes; settings: [3H]NMS, CHO-K1 cell membranes, mean ± S.E.M.
T4 construct: expressed in transfected cells; host or cells: CHO-K1 (membrane preparation)
T4 sequence (P08173 1-479): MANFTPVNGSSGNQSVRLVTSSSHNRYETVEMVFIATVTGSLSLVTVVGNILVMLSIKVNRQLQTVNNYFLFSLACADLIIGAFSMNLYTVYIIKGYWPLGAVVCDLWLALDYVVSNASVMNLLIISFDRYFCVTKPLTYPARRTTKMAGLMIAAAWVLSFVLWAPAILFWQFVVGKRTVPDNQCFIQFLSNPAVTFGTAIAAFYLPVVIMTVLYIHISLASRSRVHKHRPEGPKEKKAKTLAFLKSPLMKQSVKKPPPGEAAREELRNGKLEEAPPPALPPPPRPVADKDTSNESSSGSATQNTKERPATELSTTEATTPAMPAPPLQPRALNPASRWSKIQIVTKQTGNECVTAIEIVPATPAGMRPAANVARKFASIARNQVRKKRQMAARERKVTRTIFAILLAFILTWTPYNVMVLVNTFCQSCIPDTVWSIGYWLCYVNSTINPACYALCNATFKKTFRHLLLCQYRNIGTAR
Description: as §1, §2

[5] = molecular target: T5, hM5 mAChR (Homo sapiens, UniProt P08912); assay: [3H]NMS inhibition radioligand binding, hM5 in CHO-K1 cell membranes; settings: [3H]NMS, CHO-K1 cell membranes, mean ± S.E.M.
T5 construct: expressed in transfected cells; host or cells: CHO-K1 (membrane preparation)
T5 sequence (P08912 1-532): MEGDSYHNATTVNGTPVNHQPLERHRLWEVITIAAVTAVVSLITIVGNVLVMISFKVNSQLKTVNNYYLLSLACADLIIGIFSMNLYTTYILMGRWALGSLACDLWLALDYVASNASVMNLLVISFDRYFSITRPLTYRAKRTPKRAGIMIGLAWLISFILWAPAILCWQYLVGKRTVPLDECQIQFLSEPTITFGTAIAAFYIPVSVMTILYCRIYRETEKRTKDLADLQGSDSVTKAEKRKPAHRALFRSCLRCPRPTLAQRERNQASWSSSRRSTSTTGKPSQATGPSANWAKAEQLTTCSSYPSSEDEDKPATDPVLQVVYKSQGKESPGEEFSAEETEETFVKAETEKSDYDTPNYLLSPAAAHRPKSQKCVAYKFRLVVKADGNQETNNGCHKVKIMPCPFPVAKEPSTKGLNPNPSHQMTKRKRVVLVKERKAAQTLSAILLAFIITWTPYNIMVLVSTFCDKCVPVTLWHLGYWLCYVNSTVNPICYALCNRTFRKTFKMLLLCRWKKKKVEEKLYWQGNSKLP
Description: as §1, §2

[6] = [3H]NMS, CHO-K1 cell membranes, mean ± S.E.M.

Compound	pKi hM1 [1]	pKi hM2 [2]	pKi hM3 [3, 6]	pKi hM4 [4]	pKi hM5 [5]	Ki ([1]; read-out: pKi hM1 (converted))	Ki ([2]; read-out: pKi hM2 (converted))	Ki ([3]; [3H]NMS, CHO-K1 cell membranes, mean ± S.E.M., read-out: pKi hM3 (converted))	Ki ([4]; read-out: pKi hM4 (converted))	Ki ([5]; read-out: pKi hM5 (converted))	M3/M2 selectivity ratio ([3]; from binding affinities at hM3 and hM2)
C[N+](C)(C)C[C@@H]1COC[C@@H](c2ccc(Sc3ccccc3)cc2)O1.[I-] (relative stereo) [6b, 1-((2R*,6R*)-6-(4-(Phenylthio)phenyl)-1,4-dioxan-2-yl)-N,N,N-trimethylmethanaminium Iodide]	5.51 ± 0.01	6.71 ± 0.01	5.77 ± 0.05	5.70 ± 0.02	5.95 ± 0.13						
C[N+](C)(C)C[C@@H]1COC[C@H](c2ccc(S(=O)(=O)c3ccccc3)cc2)O1.[I-] (relative stereo) [8a, 1-((2R*,6S*)-6-(4-(Phenylsulfonyl)phenyl)-1,4-dioxan-2-yl)-N,N,N-trimethylmethanaminium Iodide]	5.08 ± 0.09	5.13 ± 0.01	<5	<5	5.21 ± 0.14						
C[N+](C)(C)C[C@@H]1COC[C@H](c2ccc([S+]([O-])c3ccccc3)cc2)O1.[I-] (relative stereo) [7a, 1-((2R*,6S*)-6-(4-(Phenylsulfinyl)phenyl)-1,4-dioxan-2-yl)-N,N,N-trimethylmethanaminium Iodide]	<5	5.52 ± 0.02	<5	<5	5.21 ± 0.08						
C[N+](C)(C)C[C@@H]1COC[C@](c2ccccc2)(C2CCCCC2)O1 [(2R,6R)-(+)-3b, 1-((2R,6R)-6-Cyclohexyl-6-phenyl-1,4-dioxan-2-yl)-N,N,N-trimethylmethanaminium Iodide]	8.30 ± 0.25	7.86 ± 0.14	7.51 ± 0.12	7.45 ± 0.11	7.68 ± 0.35						
C[N+](C)(C)C[C@@H]1COC[C@@H](c2ccc(-c3ccccc3)cc2)O1.[I-] (relative stereo) [4b, 1-((2R*,6R*)-6-([1,1′-Biphenyl]-4-yl)-1,4-dioxan-2-yl)-N,N,N-trimethylmethanaminium Iodide]	<5	5.27 ± 0.12	<5	<5	<5						
CN(C)C[C@@H]1COC[C@](c2ccccc2)(C2CCCCC2)O1 (relative stereo) [33b, 1-((2R*,6R*)-6-Cyclohexyl-6-phenyl-1,4-dioxan-2-yl)-N,N-dimethylmethanamine]	8.86 ± 0.16	7.88 ± 0.08	8.72 ± 0.10	8.62 ± 0.12	8.62 ± 0.17						7.0

Other lines, results leading:

pKi hM1 [1]	pKi hM2 [2]	pKi hM3 [3, 6]	pKi hM4 [4]	pKi hM5 [5]	Ki ([1]; read-out: pKi hM1 (converted))	Ki ([2]; read-out: pKi hM2 (converted))	Ki ([3]; [3H]NMS, CHO-K1 cell membranes, mean ± S.E.M., read-out: pKi hM3 (converted))	Ki ([4]; read-out: pKi hM4 (converted))	Ki ([5]; read-out: pKi hM5 (converted))	M3/M2 selectivity ratio ([3]; from binding affinities at hM3 and hM2)	Compound
<5	<5	<5	<5	<5							C[N+](C)(C)C[C@@H]1CO[C@@H](c2ccc(Cc3ccccc3)cc2)CO1.[I-] (relative stereo) [14b, 1-((2R*,5S*)-5-(4-Benzylphenyl)-1,4-dioxan-2-yl)-N,N,N-trimethylmethanaminium Iodide]
					0.676 µM	4.37 µM	2 µM	3.89 µM	3.98 µM		C[N+](C)(C)C[C@@H]1COC(c2ccccc2)C(c2ccccc2)(c2ccccc2)O1 (stereo in doubt) [19a, 1-((2R*,5S*)-5,6,6-Triphenyl-1,4-dioxan-2-yl)-N,N,N-trimethylmethanaminium Iodide]
5.17 ± 0.08	6.38 ± 0.10	5.88 ± 0.14	5.42 ± 0.02	5.74 ± 0.16							C[N+](C)(C)C[C@@H]1COC[C@@H](c2ccc([S+]([O-])c3ccccc3)cc2)O1.[I-] (relative stereo) [7b, 1-((2R*,6R*)-6-(4-(Phenylsulfinyl)phenyl)-1,4-dioxan-2-yl)-N,N,N-trimethylmethanaminium Iodide]
<5	5.65 ± 0.05	5.65 ± 0.12	<5	5.53 ± 0.13							C[N+](C)(C)C[C@@H]1CO[C@H](c2ccc(Cc3ccccc3)cc2)CO1.[I-] (relative stereo) [14a, 1-((2R*,5R*)-5-(4-Benzylphenyl)-1,4-dioxan-2-yl)-N,N,N-trimethylmethanaminium Iodide]
6.28 ± 0.08	5.87 ± 0.09	5.77 ± 0.03	5.60 ± 0.06	5.49 ± 0.06							C[N+](C)(C)C[C@@H]1CO[C@H](C(c2ccccc2)c2ccccc2)CO1.[I-] (relative stereo) [12a, 1-((2R*,5R*)-5-Benzhydryl-1,4-dioxan-2-yl)-N,N,N-trimethylmethanaminium Iodide]
<5	5.49 ± 0.02	<5	<5	<5							C[N+](C)(C)C[C@@H]1CO[C@@H](c2ccc(-c3ccccc3)cc2)CO1.[I-] (relative stereo) [13b, 1-((2R*,5S*)-5-([1,1′-Biphenyl]-4-yl)-1,4-dioxan-2-yl)-N,N,N-trimethylmethanaminium Iodide]
